Reference: patent publication US10011573B2, “Human androgen receptor DNA-binding domain (DBD) compounds as therapeutics and methods for their use” (The University of British Columbia, priority 2014, dated 2018)
“Also recorded” adds a separate entry of the source. Read-outs that look alike come from different tables or passages of the source.

Key:
AR-V7 = biological target: T1, AR-V7 (Homo sapiens, UniProt P10275); assay: ARR3tk-luciferase reporter assay in PC3 cells, splice variant AR-V7; type: cell-based
T1 construct: expressed in transfected cells; host or cells: PC3
T1 sequence (P10275 1-644 isoform P10275-3): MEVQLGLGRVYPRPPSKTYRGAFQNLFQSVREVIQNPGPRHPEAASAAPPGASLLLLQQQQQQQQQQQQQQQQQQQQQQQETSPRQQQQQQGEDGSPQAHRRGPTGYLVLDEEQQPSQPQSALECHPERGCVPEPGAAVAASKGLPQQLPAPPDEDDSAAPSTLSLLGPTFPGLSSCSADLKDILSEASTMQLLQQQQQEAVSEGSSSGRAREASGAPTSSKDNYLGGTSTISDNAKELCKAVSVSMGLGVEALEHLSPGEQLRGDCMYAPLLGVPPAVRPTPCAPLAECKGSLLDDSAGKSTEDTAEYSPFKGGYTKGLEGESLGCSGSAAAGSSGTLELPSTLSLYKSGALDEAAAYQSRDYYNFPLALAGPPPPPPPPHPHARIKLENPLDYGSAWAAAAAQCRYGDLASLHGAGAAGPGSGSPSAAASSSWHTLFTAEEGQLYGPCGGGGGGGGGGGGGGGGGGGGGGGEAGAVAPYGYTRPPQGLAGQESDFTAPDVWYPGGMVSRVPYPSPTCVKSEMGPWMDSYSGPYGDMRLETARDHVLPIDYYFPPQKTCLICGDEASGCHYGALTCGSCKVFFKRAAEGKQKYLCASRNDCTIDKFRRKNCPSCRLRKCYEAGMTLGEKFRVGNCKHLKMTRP
Excerpt: Full-length human AR (hARWT) or splice variant (AR-V7) was encoded on a pcDNA3.1 expression plasmid.

AR-DBD+hinge / ARE dsDNA = biological target: T2, AR-DBD+hinge / ARE dsDNA (Homo sapiens, UniProt P10275); assay: EMSA (gel shift) assay; type: biochemical; set-up: His6 (N); made in house; host or cells: E. coli BL21 (DE3)
T2 sequence (P10275 558-689): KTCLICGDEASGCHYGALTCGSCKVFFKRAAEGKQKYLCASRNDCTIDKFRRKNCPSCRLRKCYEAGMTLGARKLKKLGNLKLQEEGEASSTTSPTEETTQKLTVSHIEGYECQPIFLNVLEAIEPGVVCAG
Method: The plasmid encoding the AR-DBD+hinge was transformed into BL21 (DE3). BL21 cells designated for expression of biotin-labeled AR-DBD+hinge were co-transformed with the Pan4 AR-DBD+hinge (ampicillin selection) and biotin ligase expression vectors (pBir-Acm, chloramphenicol selection). Single colonies were grown in 2 liters of LB media supplemented with 50 μg/ml ampicillin and 35 μg/ml chloramphenicol (where appropriate) to A600 nm=0.6 before induction with 0.1 mM isopropyl β-D-1-thiogalactopyranoside for 3 h at 37° C. Cultures expressing the AR-DBD with the biotinylation sequence were simultaneously supplemented with 0.150 mM biotin during the induction step. Cell pellets were resuspended in ˜20 ml of 50 mM Tris-HCl, pH 8.0, 300 mM NaCl, 5% glycerol (Buffer A) supplemented with 10 mM imidazole and incubated with 0.1 mg/ml chicken egg white lysozyme (Sigma™) and 0.1 mM PMSF protease inhibitor for 30 min on ice. Cell lysis was achieved by sonication, followed by centrifugation at 13,000×g for 30 min at 4° C. The supernatant was rotated with 2 ml of nickel-agarose beads (GE Healthcare™) for 1 h at 4° C. and then directly loaded onto a Poly-Prep 10-ml gravity chromatography column (Bio-Rad™). Washing was performed with 2×4 ml of Buffer A supplemented with 20 mM imidazole. Pure proteins were eluted in 500-μl fractions with 2 ml of Buffer A containing 250 mM imidazole. […]

AR Y594A mutant = AR Y594A mutant (Homo sapiens, UniProt P10275, Y594A); assay: ARR3tk-luciferase reporter assay in PC3 cells, AR Y594A
Sequence of AR Y594A mutant (P10275 whole entry Y594A): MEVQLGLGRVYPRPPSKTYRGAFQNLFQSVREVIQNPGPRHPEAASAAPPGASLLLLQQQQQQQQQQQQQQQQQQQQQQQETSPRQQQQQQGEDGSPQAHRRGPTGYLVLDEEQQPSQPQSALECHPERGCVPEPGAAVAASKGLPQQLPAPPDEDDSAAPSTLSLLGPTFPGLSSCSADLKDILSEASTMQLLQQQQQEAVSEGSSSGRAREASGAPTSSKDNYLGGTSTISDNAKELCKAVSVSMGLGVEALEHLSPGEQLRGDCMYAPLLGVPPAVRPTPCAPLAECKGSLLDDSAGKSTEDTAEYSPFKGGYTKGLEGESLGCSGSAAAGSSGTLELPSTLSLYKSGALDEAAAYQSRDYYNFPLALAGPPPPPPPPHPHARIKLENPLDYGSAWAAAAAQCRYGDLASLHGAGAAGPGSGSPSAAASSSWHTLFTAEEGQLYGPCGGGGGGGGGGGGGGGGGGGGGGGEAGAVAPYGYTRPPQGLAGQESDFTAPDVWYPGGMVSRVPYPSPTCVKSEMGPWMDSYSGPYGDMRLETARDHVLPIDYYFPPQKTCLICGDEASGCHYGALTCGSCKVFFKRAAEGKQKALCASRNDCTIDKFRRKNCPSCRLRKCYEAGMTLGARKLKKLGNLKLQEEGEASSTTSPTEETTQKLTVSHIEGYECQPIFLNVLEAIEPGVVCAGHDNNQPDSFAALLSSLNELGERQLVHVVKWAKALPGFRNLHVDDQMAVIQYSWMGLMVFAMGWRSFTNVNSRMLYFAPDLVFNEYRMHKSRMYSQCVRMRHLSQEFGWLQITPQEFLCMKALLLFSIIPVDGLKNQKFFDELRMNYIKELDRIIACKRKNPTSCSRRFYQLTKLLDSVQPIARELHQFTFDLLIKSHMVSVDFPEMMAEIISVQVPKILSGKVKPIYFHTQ

AR-V7Y594D = AR-V7Y594D (Homo sapiens, UniProt P10275, Y594D); assay: ARR3tk-luciferase reporter assay in PC3 cells, AR-V7 Y594D
Sequence of AR-V7Y594D (P10275 1-644 isoform P10275-3 Y594D): as the sequence (P10275 1-644 isoform P10275-3) above, with Y594D counted along it

[1] = biological target: T3, AR hormone binding site (recombinant wild type LBD) (Rattus norvegicus, UniProt P15207); assay: Androgen displacement assay (Polar Screen Androgen Receptor Competitor Green Assay Kit)
T3 construct: displace DHT from the ABS site of recombinant wild type LBD
T3 sequence (P15207 651-882 limits assumed): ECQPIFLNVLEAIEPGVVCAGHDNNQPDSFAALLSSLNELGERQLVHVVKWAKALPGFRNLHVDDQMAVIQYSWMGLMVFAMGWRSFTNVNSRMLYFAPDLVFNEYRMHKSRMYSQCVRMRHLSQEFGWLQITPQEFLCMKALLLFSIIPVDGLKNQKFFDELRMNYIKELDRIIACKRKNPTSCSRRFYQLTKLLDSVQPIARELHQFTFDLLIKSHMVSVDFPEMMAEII
Method: 5. Androgen displacement assay: The androgen displacement was assessed with the Polar Screen Androgen Receptor Competitor Green Assay Kit as per the instructions of the manufacturer (Lack, Axerio-Cilies et al. 2011).
The ability of the above chemicals to displace DHT from the ABS site of recombinant wild type LBD was measured using a fluorescent polarization assay (PolarScreen™, Life Technologies) at various concentrations.

AR AF2 site = AR AF2 site (Homo sapiens, UniProt P10275); assay: SRC2-3 peptide displacement assay (fluorescence polarization); type: binding
Sequence of AR AF2 site (P10275 664-920 limits assumed): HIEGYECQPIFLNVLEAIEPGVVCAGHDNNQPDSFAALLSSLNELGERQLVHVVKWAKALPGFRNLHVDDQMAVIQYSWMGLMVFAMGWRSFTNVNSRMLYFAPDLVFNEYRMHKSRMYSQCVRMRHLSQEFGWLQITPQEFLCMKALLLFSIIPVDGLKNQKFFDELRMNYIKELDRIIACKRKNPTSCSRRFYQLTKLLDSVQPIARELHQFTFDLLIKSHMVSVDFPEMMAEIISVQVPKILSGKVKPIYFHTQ
Method: 6. SRC2-3 peptide displacement assay: The AR AF2 specific peptide displacement was assayed as previously described.

YFP-V7 = biological target: T4, YFP-V7 (Homo sapiens, UniProt P10275); assay: Luciferase assay with YFP-V7 in PC3 cells; type: cell-based
T4 construct: expressed in transfected cells; host or cells: PC3
T4 sequence (P10275 1-644 isoform P10275-3): as the sequence (P10275 1-644 isoform P10275-3) above
Excerpt: the underlined primer sections anneal to the specified template, although their 5′-extensions (italicized) are complementary to the corresponding primer sequence of the other PCR. Plasmid assembly is achieved by mixing the PCR products from each reaction (Klock, H. E. et al. (2008) Combining the polymerase incomplete primer extension method for cloning and mutagenesis with microscreening to accelerate structural genomics efforts. Proteins 71, 982-994), followed by transformation into chemically competent bacteria. A similar strategy was used to clone the AR-DBD+hinge into the Pan4 vector (avidity) expressing the N-terminal biotinylation sequence ([…] ) and C-terminal His tag. YFP-AR plasmid was a gift from Dr. Jan Trapman (van Royen, M. E. et al. (2012) Stepwise androgen receptor dimerization. J. Cell Sci. 125, 1970-1979) and is based on pEYFP-C1 (Clontech™). YFP-V7 was constructed by polymerase incomplete primer extension method using the following primers and templates: AR-V7 insert from pcDNA3. AR-V7 template

Stability in media = type: physicochemical
LNCaP xenograft = assay: Castration-resistant LNCaP xenografts in mice; settings: 100 mg/kg i.p. twice daily, 4 weeks
AR target genes = assay: Microarray genetic profile in LNCaP cells

SMILES	inhibition of AR-V7 transcriptional activity (AR-V7)	protein-DNA complex formation (gel shift) (AR-DBD+hinge / ARE dsDNA)	IC50 (AR Y594A mutant)	inhibition of AR-V7Y594D transcriptional activity (AR-V7Y594D)	androgen displacement from AR HBS [1]	displacement of peptide in the AF2 binding site (AR AF2 site)	inhibition of YFP-V7 driven luciferase expression (YFP-V7)	inhibition of AR-V7 transcriptional activity (AR-V7; PC3 cells, no R1881)	stability in media (Stability in media)	toxic effect on animals (LNCaP xenograft)	LNCaP xenograft tumor volume (LNCaP xenograft; castrated mice, 100 mg/kg)	serum PSA (LNCaP xenograft; castrated mice, 100 mg/kg)	change of expression of genotoxin-responsive genes (AR target genes; 31 genes)	FKBP5 gene expression fold change vs R1881 treatment only (AR target genes; 14449 400 nM + 1 nM R1881, 24 h, p 0.08)	ATF3 gene expression fold change (AR target genes; 14449 400 nM + R1881)	CASP1 gene expression fold change (AR target genes; 14449 400 nM + R1881)	XPC gene expression fold change (AR target genes; 14449 400 nM + R1881)
c1ccc(-c2csc(N3CCOCC3)n2)cc1 [Compound 14228, 4-(4-phenylthiazol-2-yl)morpholine]	reduced with increasing concentrations; also recorded: inhibit the transcription of AR-V7 in a concentration-dependent manner	could not prevent protein-DNA complex formation	3 to 6 µM	could not be inhibited	does not displace androgen	Neither does it displace the peptide	could be inhibited	–	–	–	–	–	–	–	–	–	–
Brc1ncn(-c2csc(N3CCOCC3)n2)c1Br [Compound 14449]	–	could not prevent protein-DNA complex formation	3 to 6 µM	could not be inhibited	–	–	could be inhibited	reduced with increasing concentrations; also recorded: inhibit the transcription of AR-V7 in a concentration-dependent manner	fully stable in media	no observable toxic effect	reduces tumor volume; also recorded: inhibited to levels comparable with enzalutamide treatment	abolishes PSA production; also recorded: inhibited to levels comparable with enzalutamide treatment	None of the genotoxin-responsive genes showed any significant change	0.81	0.99	1.00	1.03
